Laboratory results as given in patent US6054432A, “Means for treating prostate hypertrophy and prostate cancer” (Asta Medica Aktiengesellschaft, priority 1997, dated 2000).
Non-standard residues stand in square brackets, D forms with d. Residues, ends and D or L forms follow the SMILES beside them. dPhe(4-Cl) = N[C@H](Cc1ccc(Cl)cc1)C(=O)O; d2Nal = N[C@H](Cc1ccc2ccccc2c1)C(=O)O; dCit = NC(=O)NCCC[C@@H](N)C(=O)O; d3Pal = N[C@H](Cc1cccnc1)C(=O)O

Tests used:
[1] = tested on: benign prostate hypertrophy (BPH) patients; assay: Clinical therapy of BPH with Cetrorelix (Example 1); format: in vivo, human; settings: 4 to 8 weeks therapy regimen
Method: Cetrorelix is administered in a dose of 0.5 mg to 2 mg daily for 4 to 8 weeks for the therapy of BPH. A dose of 5 mg to 30 mg, dispensed once per week or every 10 days also over a time period of 4 to 8 weeks as well as one every two weeks or one injection per month of 20 mg to 60 mg can also decisively improve the clinical symptoms and signs. […] The prostate volume decreases by 20 to 40% during the treatment time of 4 to 8 weeks. […] In addition, at least 30% of the patients achieve an improvement of the urine flow of 6 ml/sec with this therapy. This is almost equivalent to an improvement like that associated with the golden standard operation, and in considerably shorter time. […] These clinical benefits continue for at least 3 to 6 months after therapy. This allows a long-term therapy of BPH with only an intermittent treatment of 2 to max. 4 injection cycles over 4 to 8 weeks.
This therapy represents a significant therapeutic advance in the treatment of BPH since it not only achieves an improvement of the clinical symptoms of BPH but also a diminution of the prostate and an improvement of the urine flow like those associated with surgery The protocols of the invention avoid the negative consequences of an operation, e.g. urine incontinence, retrograde ejaculation, blood loss with the consequence of blood transfusions and also the risks of infection associated with surgery.

[2] = tested on: BPH patients; settings: 500 μg every 12 hours for 4 weeks, cited from earlier work
[3] = tested on: prostate carcinoma patients; settings: cited from earlier work
[4] = 500 μg every 12 hours, end of the 6 weeks of therapy

## CC(=O)N[C@H](Cc1ccc2ccccc2c1)C(=O)N[C@H](Cc1ccc(Cl)cc1)C(=O)N[C@H](Cc1cccnc1)C(=O)N[C@@H](CO)C(=O)N[C@@H](Cc1ccc(O)cc1)C(=O)N[C@H](CCCNC(N)=O)C(=O)N[C@@H](CC(C)C)C(=O)N[C@@H](CCCNC(=N)N)C(=O)N1CCC[C@H]1C(=O)N[C@H](C)C(N)=O [Cetrorelix] (Ac-[d2Nal][dPhe(4-Cl)][d3Pal]SY[dCit]LRP[dA]-NH2)
[1]
  patients achieving an improvement of the urine flow of 6 ml/sec: at least 30%
  quality of life: significant improvements
  sexual performance: No limitations in sexual performance are observed
  testosterone level: Submaximal decreases of testosterone occur, but these are above those levels associated with castration
[1]; comparable to the α-blockers
  increase of the peak flow of the urine: approximately 3 ml/sec
[2]; BPH patients, no castration values during the last three weeks
  testosterone levels during treatment: fluctuated at subnormal levels
[2]; all patients, initial phase
  testosterone levels, initially: lowering in testosterone levels to a castration level
[2]
  prostate volume: distinct decrease
  symptoms of dysuria: distinct decrease
[3]; 500 μg every 12 hours for 6 weeks, all patients, initial phase
  testosterone levels, initially: lowering in testosterone levels to a castration level
[3]; [4]
  overall condition of the patient: considerable improvement
  testosterone values at the end of therapy: at the castration levels
